From ChEMBL document CHEMBL1134603 (J Med Chem, 2001)
pEC50, pIC50: −log10 of the molar value.

Columns and labels:
[1] = molecular target: T1, Human immunodeficiency virus type 1 reverse transcriptase (Human immunodeficiency virus 1, UniProt Q72547); assay: Inhibition of HIV-1 reverse transcriptase at 37 degree Centigrade
[2] = molecular target: T1, Human immunodeficiency virus type 1 reverse transcriptase; assay: Inhibition of HIV-1 reverse transcriptase at 25 degree Centigrade

Row | SMILES | pEC50 [1] | pIC50 [2]
1 | Cc1c(Oc2ccccc2)n(COCCO)c(=O)[nH]c1=O | 4.07 | –
2 | Cc1c(Sc2ccccc2)[nH]c(=O)[nH]c1=O | < 3.60 | –
3 | Cc1c(Sc2ccccc2)n(C)c(=O)[nH]c1=O | < 3.82 | –
4 | Cc1c(Cc2ccccc2)n(COCCO)c(=O)[nH]c1=O | 4.64 | –
5 | CCc1ccnc2c1N(C)C(=O)c1cccnc1N2CC | – | 6.96
6 | CCOCn1c(Cc2ccccc2)c(C(C)C)c(=O)[nH]c1=O [EMIVIRINE] | 8.40 | –
7 | Cc1c(Sc2ccccc2)n(COCCO)c(=O)[nH]c1=O [HEPT] | 5.15 | –
